From patent US20260014118A1, “VITAMINS FOR USE IN IMPROVING GUT HEALTH” (DSM IP ASSETS B.V., priority 2022, published 2026)

Test system: Bifidobacterium animalis ssp. lactis DSM 32269
Assay: Short-term batch-fermentation (colonic incubation, M-SHIME colon model) with fecal inocula of six human donors; qPCR on groEL gene
Assay type: cell-based
Conditions: 48 h colonic incubation; for levels of Bifidobacterium animalis ssp. lactis (DSM 32269 specific groEL gene copies) in the lumen environment, as compared to the respective control: average of six donors, co-supplemented with probiotic 1*10^9 CFU, vitamin B2 0.01667 g/L, vitamin C 0.333 g/L, vitamin D3 0.000025 g/L
Method: A short-term batch-fermentation experiment was carried out by ProDigest, consisting of a colonic incubation of a representative dose of a selected vitamin with a representative bacterial inoculum under simulated conditions for the proximal large intestine. In the current experiment, the bacterial inocula were derived from fresh fecal samples of six different healthy adult donors. Incubations were performed as described previously (Van den Abbeele, P.; Taminiau, B.; Pinheiro, I.; Duysburgh, C.; Jacobs, H.; Pijls, L.; Marzorati, M. Arabinoxylo-Oligosaccharides and Inulin Impact Inter-Individual Variation on Microbial Metabolism and Composition, Which Immunomodulates Human Cells. J. Agric. Food Chem. 2018, 66, 1121-1130). At the start of the short-term colonic incubation, fresh fecal material from six healthy human donors was collected and upon preparation of an anaerobic fecal slurry, this slurry was inoculated at 10 vol % in a SHIME nutritional medium containing basal nutrients containing 3.5 g/L K2HPO4, 10.9 g/L KH2PO4, 2 g/L NaHCO3(Chem-lab NV, Zedelgem, Belgium), 2 g/L yeast extract, 2 g/L peptone (Oxoid, Aalst, Belgium), 1 g/L mucin (Carl Roth, Karlsruhe, Germany), 0.5 g/L L-cysteine and 2 mL/L Tween80 (Sigma-Aldrich, Bornem, Belgium). All test ingredients (i.e., probiotic strain, vitamin B2, C, or D3) were also added to the SHIME medium. Furthermore, M-SHIME® technology was incorporated in the current experiment by adding mucin-covered microcosms (modeling the mucus of the colon) to the incubations as described previously (Van den Abbeele, P., et al. (2013). Butyrate-producing Clostridium cluster XIVa species specifically colonize mucins in an in vitro gut model. The ISME Journal 7 (5), 949-961). Incubations were performed for 48 h, at 37° C., under shaking (90 rpm) and anaerobic conditions.
In this study, the Bifidobacterium animalis ssp. lactis BB-12 equivalent Bifidobacterium animalis ssp. lactis DSM 32269 (Biocare Copenhagen) was added to the colon model containing the donor samples, alone or in combination with vitamin B2, C, or D (see Table 1). After 48 h of incubation, the abundance of the added strain was analyzed using primers that are specific for Bifidobacterium animalis ssp. lactis BB-12/Bifidobacterium animalis ssp. lactis DSM 32269. Experiments were performed in single repetition.
The Bifidobacterium animalis ssp. lactis BB-12 equivalent strain Bifidobacterium animalis ssp. lactis DSM 32269 was added to the SHIME medium as an overnight grown culture at a concentration of 1*10^9 CFU. The probiotic strain was either supplemented alone or in combination with vitamin B2, vitamin C or vitamin D3 (DSM). Vitamin B2, C, and D3 was added at a concentration of 0.01667 g/L, 0.333 g/L and 0.000025 g/L, respectively, which translates into a 10 mg, 200 mg, and […] dose, respectively, given that the colon volume is about 600 ml.
qPCR was performed on groEL gene (NCBI reference CP003497) to monitor the level of the supplemented Bifidobacterium animalis ssp. lactis DSM 32269 strain within the gut microbiome, as described previously (Junick et al. (2012), Quantification of Human Fecal Bifidobacterium Species by Use of Quantitative Real-Time PCR Analysis Targeting the groEL Gene). Samples were analyzed from the lumen and mucus environment following 48 h of incubation.
Statistical analysis was performed to investigate the average effect of the test products. For this purpose, the average over the six donors was calculated for each endpoint. […]

[1] = control = probiotic only, p<0.05

For `C=C1CC[C@H](O)C/C1=C/C=C1\CCC[C@]2(C)[C@@H]([C@H](C)CCCC(C)C)CC[C@@H]12` [vitamin D, cholecalciferol], the “levels of Bifidobacterium animalis ssp. lactis (DSM 32269 specific groEL gene copies) in the lumen environment, as compared to the respective control” value [1] was “significantly increased”.

`Cc1cc2nc3c(=O)[nH]c(=O)nc-3n(C[C@H](O)[C@H](O)[C@H](O)CO)c2cc1C` [vitamin B2, riboflavin] was tested, and the “levels of Bifidobacterium animalis ssp. lactis (DSM 32269 specific groEL gene copies) in the lumen environment, as compared to the respective control” value [1] was “significantly increased”, the “levels of Bifidobacterium animalis ssp. lactis in the mucus environment, as compared to the respective control” value (mucus, vitamin B2 0.01667 g/L co-supplemented with probiotic, control = probiotic only, p<0.05) was “significantly increased” and the “copies of the Bifidobacterium animalis ssp. lactis DSM 32269 specific groEL gene in the mucus environment, relative to control” value (mucus, vitamin B2 0.01667 g/L co-supplemented with probiotic, versus probiotic only) was “around 6 times”.

In the case of `O=C1O[C@H]([C@@H](O)CO)C(O)=C1O` [vitamin C, L-ascorbic acid], the “levels of Bifidobacterium animalis ssp. lactis (DSM 32269 specific groEL gene copies) in the lumen environment, as compared to the respective control” value [1] is reported as “significantly increased”.
